We go through two compounds from publication PMC11785093 (bioRxiv, 2025).

Each structure is given as a SMILES string. Read-outs that look alike come from different tables or passages of the source.

Assay [1] deals with T1, DDB1 (Homo sapiens, UniProt Q16531). Put plainly: SPR. The assay is classed as binding. The following applies: biotinylated protein immobilised; pH […] °C, […] DMSO; site at W1047, Y1114.
The target of assay [2] is T1, DDB1. Briefly: SPR. The following applies: read-out: estimated KD; biotinylated protein immobilised; pH […] °C, […] DMSO. The assay is classed as binding.

T1 sequence (Q16531 2-1140): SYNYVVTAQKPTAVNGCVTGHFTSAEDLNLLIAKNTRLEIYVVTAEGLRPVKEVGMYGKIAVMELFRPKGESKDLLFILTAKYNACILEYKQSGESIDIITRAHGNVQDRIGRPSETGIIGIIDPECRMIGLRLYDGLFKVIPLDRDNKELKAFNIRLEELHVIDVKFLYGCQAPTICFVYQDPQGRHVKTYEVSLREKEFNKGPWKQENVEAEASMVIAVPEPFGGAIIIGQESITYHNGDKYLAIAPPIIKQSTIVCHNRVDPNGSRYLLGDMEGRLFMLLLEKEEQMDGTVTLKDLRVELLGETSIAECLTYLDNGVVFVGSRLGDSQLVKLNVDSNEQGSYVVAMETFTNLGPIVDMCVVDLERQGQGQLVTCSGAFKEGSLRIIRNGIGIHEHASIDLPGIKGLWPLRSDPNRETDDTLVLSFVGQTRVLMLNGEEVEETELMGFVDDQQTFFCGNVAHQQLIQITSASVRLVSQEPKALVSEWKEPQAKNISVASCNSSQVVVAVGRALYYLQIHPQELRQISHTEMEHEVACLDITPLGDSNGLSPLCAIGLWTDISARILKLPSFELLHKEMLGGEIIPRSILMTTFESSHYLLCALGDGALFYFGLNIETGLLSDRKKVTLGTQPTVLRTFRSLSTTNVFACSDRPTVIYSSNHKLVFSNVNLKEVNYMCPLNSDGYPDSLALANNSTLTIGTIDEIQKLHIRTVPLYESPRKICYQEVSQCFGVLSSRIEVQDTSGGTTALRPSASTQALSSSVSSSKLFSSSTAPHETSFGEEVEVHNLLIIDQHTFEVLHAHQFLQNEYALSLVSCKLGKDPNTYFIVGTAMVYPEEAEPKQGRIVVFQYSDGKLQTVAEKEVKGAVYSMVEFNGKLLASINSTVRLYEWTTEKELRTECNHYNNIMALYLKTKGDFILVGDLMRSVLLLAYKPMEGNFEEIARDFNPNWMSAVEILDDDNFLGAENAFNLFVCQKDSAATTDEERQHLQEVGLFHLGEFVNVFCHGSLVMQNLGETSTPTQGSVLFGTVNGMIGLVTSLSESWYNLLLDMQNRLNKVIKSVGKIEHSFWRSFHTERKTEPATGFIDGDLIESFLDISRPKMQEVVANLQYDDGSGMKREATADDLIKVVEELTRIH

The Kd is a measure of binding affinity in units of concentration. Take `CCOc1cccc([C@@H]2CC(=O)Nc3c2c(C)nn3-c2ccc3nncn3n2)c1` [(S)-XS381952]: the Kd in assay [1] amounted to 2000 nM.

For the compound `CCOc1cccc([C@H]2CC(=O)Nc3c2c(C)nn3-c2ccc3nncn3n2)c1` [(R)-XS381952], in assay [2], the Kd is more than 73000 nM.
